Experimental data published in ChEMBL document CHEMBL1201862, “PubChem BioAssay data set” (2004).
Several values for one entry are separate records, joined by “and”; a condition that tells them apart may be missing. Identical values can stand only once.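 Compound exposure: 48 hours, 5 concentrations, 96-well plates. The concentration for 50% growth inhibition is given as GI50.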 Activity calls are given as the source filed them. Rule as the data show it: active = GI50 up to about 1.1 µM and inactive = higher.

Key:
Assay in all cases: inhibition of tumour cell growth, NCI panel, 48 h
[1] = system: COLO 205
[2] = system: NCI-H23
[3] = system: SR
[4] = system: HCT-15
[5] = system: MDA-MB-435
[6] = system: CCRF-CEM
[7] = system: T47D
[8] = system: IGROV-1
[9] = system: HT-29
[10] = system: HOP-92
[11] = system: RXF 393
[12] = system: UO-31
[13] = system: NCI-H522
[14] = system: SK-MEL-5
[15] = system: U-251
[16] = system: MOLT-4
[17] = system: PC-3
[18] = system: MCF7
[19] = system: OVCAR-3

Structure (SMILES) | GI50 [1] | GI50 [2] | GI50 [3] | GI50 [4] | GI50 [5] | GI50 [6] | GI50 [7] | GI50 [8] | GI50 [9] | GI50 [10] | GI50 [11] | GI50 [12] | GI50 [13] | GI50 [14] | GI50 [15] | GI50 [16] | GI50 [17] | GI50 [18] | GI50 [19]
CC(=O)Oc1ccc2c(C)cc(=O)oc2c1 | > 100 µM (inactive) | > 100 µM (inactive) | > 100 µM (inactive) | > 100 µM | > 100 µM (inactive) | > 100 µM (inactive) | > 100 µM (inactive) and 61.7 µM (inactive) | > 100 µM (inactive) | > 100 µM (inactive) | > 100 µM (inactive) | > 100 µM (inactive) | > 100 µM (inactive) | > 100 µM (inactive) | > 100 µM (inactive) | > 100 µM (inactive) | > 100 µM (inactive) | > 100 µM (inactive) | > 100 µM (inactive) | > 100 µM (inactive)
O=S(=O)(c1cc(Cl)ccc1Cl)n1ccnc1 | 17.9 µM (inactive) | 20.9 µM (inactive) | 25.4 µM (inactive) | 24.7 µM | 18.2 µM (inactive) | 37.3 µM (inactive) | 48.3 µM (inactive) | 41.5 µM (inactive) | 29.2 µM (inactive) | 39.9 µM (inactive) | 28 µM (inactive) | 85.5 µM (inactive) | 27.4 µM (inactive) | 18.8 µM (inactive) | 33 µM (inactive) | 32.6 µM (inactive) | 47.8 µM (inactive) | 35 µM (inactive) | 46.9 µM (inactive)
N=c1oc2ccc(Cl)cc2cc1C(=O)Nc1ccccc1 | > 100 µM (inactive) | > 48.5 µM (inactive) | > 100 µM (inactive) | > 100 µM | > 100 µM (inactive) | > 100 µM (inactive) | 17.3 µM (inactive) | 26.1 µM (inactive) | > 100 µM (inactive) | 10.5 µM (inactive) | 26.2 µM (inactive) | > 47 µM (inactive) | 5.11 µM (inactive) | > 100 µM (inactive) | > 46.1 µM (inactive) | > 100 µM (inactive) | > 100 µM (inactive) | 19.6 µM (inactive) | > 100 µM (inactive)
O=C/C(=C(/Br)I)c1ccccc1 | 3.91 µM (inactive) | 5.11 µM (inactive) | 0.448 µM (active) | 2.24 µM | 2.56 µM (inactive) | 0.248 µM (active) | 1.86 µM (inactive) | 4.41 µM (inactive) | 2.29 µM (inactive) | 2.28 µM (inactive) | 2.71 µM (inactive) | 4.97 µM (inactive) | 1.78 µM (inactive) | 7.06 µM (inactive) | 4.1 µM (inactive) | 0.597 µM (active) | 6.35 µM (inactive) | 1.3 µM (inactive) | 2.74 µM (inactive)
O=[N+]([O-])C1=Cc2cc(Cl)ccc2OC1c1cccc2ccccc12 (stereo not given) | 0.719 µM (active) | 0.847 µM (active) | 0.224 µM (active) | 0.37 µM | 1.44 µM (inactive) | 0.191 µM (active) | 0.442 µM (active) | 0.625 µM (active) | 0.637 µM (active) | 1.34 µM (inactive) | 0.405 µM (active) | 1.26 µM (inactive) | 1.27 µM (inactive) | 1.26 µM (inactive) | 1.56 µM (inactive) | 0.251 µM (active) | 0.635 µM (active) | 0.521 µM (active) | 0.603 µM (active)
COc1cccc(C23CCCC(C2)NCC3Br)c1OC (stereo not given) | 11.9 µM (inactive) | 15.3 µM (inactive) | 31.3 µM (inactive) | 40.9 µM | 39 µM (inactive) | 21.9 µM (inactive) | 26.3 µM (inactive) | 75.7 µM (inactive) | 37.3 µM (inactive) | 27.9 µM (inactive) | 92.3 µM (inactive) | 47.4 µM (inactive) | 10.2 µM (inactive) | 2.55 µM (inactive) | 28.4 µM (inactive) | 45 µM (inactive) | 30.5 µM (inactive) | 21.6 µM (inactive) | 34.5 µM (inactive)
COc1ccc(C2CC(c3ccc(NS(=O)(=O)c4cc([N+](=O)[O-])ccc4C)cc3)=NN2S(=O)(=O)c2cc([N+](=O)[O-])ccc2C)cc1 (stereo not given) | 51.4 µM (inactive) | 22.4 µM (inactive) | 51.4 µM (inactive) | 36.2 µM | 46 µM (inactive) | 65.2 µM (inactive) | 71.4 µM (inactive) | 44.4 µM (inactive) | 50.4 µM (inactive) | 34.3 µM (inactive) | > 100 µM (inactive) | 32.1 µM (inactive) | 22.3 µM (inactive) | 42.2 µM (inactive) | 36.8 µM (inactive) | 33.3 µM (inactive) | 33.8 µM (inactive) | 39 µM (inactive) | 33.4 µM (inactive)
NC(=O)C(=CNC(=S)c1ccncc1)C(N)=O | > 100 µM (inactive) | > 100 µM (inactive) | > 100 µM (inactive) | > 100 µM | > 100 µM (inactive) | > 100 µM (inactive) | > 100 µM (inactive) | > 100 µM (inactive) | > 100 µM (inactive) | > 100 µM (inactive) | > 100 µM (inactive) | > 100 µM (inactive) | > 100 µM (inactive) | > 100 µM (inactive) | > 100 µM (inactive) | > 100 µM (inactive) | > 100 µM (inactive) | > 100 µM (inactive) | > 100 µM (inactive)
CCOC(=O)[C@@H](Cc1ccc(CCl)cc1)NC(C)=O | 18.1 µM (inactive) | 25 µM (inactive) | 29.4 µM (inactive) | 27.4 µM | 19.9 µM (inactive) | 26.7 µM (inactive) | 26.3 µM (inactive) | 23.7 µM (inactive) | 75.3 µM (inactive) | 23.4 µM (inactive) | 14 µM (inactive) | 19.2 µM (inactive) | 17.6 µM (inactive) | 16 µM (inactive) | 19.6 µM (inactive) | 29.2 µM (inactive) | 29 µM (inactive) | 26.1 µM (inactive) | 30.1 µM (inactive)
CC(=NNC(=S)Nc1ccc(C)cc1)c1cccc(C(C)=NNC(=S)Nc2ccc(C)cc2)n1 | 3.83 µM (inactive) | 22 µM (inactive) | 4.02 µM (inactive) | 6.82 µM | 13.6 µM (inactive) | 7.5 µM (inactive) | 29.6 µM (inactive) | 12.1 µM (inactive) | 11.9 µM (inactive) | 10 µM (inactive) | 14.4 µM (inactive) | 6.68 µM (inactive) | 22.3 µM (inactive) | 6.44 µM (inactive) | 31.3 µM (inactive) | 4.18 µM (inactive) | 17.7 µM (inactive) | > 100 µM (inactive) | 1.5 µM (inactive)
COC(=O)c1nc2n(n1)-c1ccccc1C(=O)N(Cc1ccccc1)C2 | > 100 µM (inactive) | > 100 µM (inactive) | > 100 µM (inactive) | > 100 µM | > 100 µM (inactive) | > 100 µM (inactive) | > 100 µM (inactive) | > 100 µM (inactive) | > 100 µM (inactive) | > 100 µM (inactive) | > 100 µM (inactive) | > 100 µM (inactive) | > 100 µM (inactive) | > 100 µM (inactive) | > 100 µM (inactive) | > 100 µM (inactive) | > 100 µM (inactive) | > 100 µM (inactive) | > 100 µM (inactive)
CC1CCC2(OC1)OC1CC3C4CC=C5CC(OC6OC(CO)C(OC7OC(C)C(OC8OC(C)C(O)C(O)C8O)C(O)C7O)C(O)C6OC6OC(C)C(O)C(O)C6O)CCC5(C)C4CCC3(C)C1C2C (stereo not given) | 1.28 µM (inactive) | 1.66 µM (inactive) | 0.0196 µM (active) | 1.51 µM | 0.281 µM (active) | 0.0643 µM (active) | 1.24 µM (inactive) | 1.3 µM (inactive) | 1 µM (active) | 0.0703 µM (active) | 0.583 µM (active) | 0.216 µM (active) | 0.643 µM (active) | 1.43 µM (inactive) | 0.65 µM (active) | 0.237 µM (active) | 0.724 µM (active) | 1.38 µM (inactive) | 1.75 µM (inactive)
N#Cc1c(O)nc2[nH]nc(/N=N\c3c(O)ccc4ccccc34)c2c1-c1ccc(Cl)cc1 | 0.433 µM (active) | 0.47 µM (active) | 0.255 µM (active) | 0.019 µM | 0.789 µM (active) | < 0.0371 µM (active) | 0.173 µM (active) | 0.286 µM (active) | 0.123 µM (active) | 0.234 µM (active) | 0.198 µM (active) | 0.175 µM (active) | 0.248 µM (active) | 0.369 µM (active) | 0.124 µM (active) | 0.171 µM (active) | 0.303 µM (active) | 0.147 µM (active) | 0.0667 µM (active)
COc1cccc2c1C(=O)c1c(O)c3c(c(O)c1C2=O)CC(O)(C(=O)CO)CC3OC1CC(N2CCOCC2C#N)C(O)C(C)O1 (stereo not given) | < 0.0001 µM (active) | < 0.0001 µM (active) | < 0.0001 µM (active) | < 0.0001 µM | < 0.0001 µM (active) | < 0.0001 µM (active) | < 0.0001 µM (active) | > 0.01 µM (active) | < 0.0001 µM (active) | < 0.0001 µM (active) | > 0.01 µM (active) | > 0.01 µM (active) | < 0.0001 µM (active) | < 0.0001 µM (active) | < 0.0001 µM (active) | < 0.0001 µM (active) | < 0.0001 µM (active) | < 0.0001 µM (active) | < 0.0001 µM (active)
CC(C)=CCNc1ncnc2[nH]cnc12 | > 100 µM (inactive) | > 100 µM (inactive) | > 100 µM (inactive) | > 100 µM | > 100 µM (inactive) | > 100 µM (inactive) | > 100 µM (inactive) | > 100 µM (inactive) | > 100 µM (inactive) | > 100 µM (inactive) | > 100 µM (inactive) | > 100 µM (inactive) | > 100 µM (inactive) | 87.7 µM (inactive) | > 100 µM (inactive) | > 100 µM (inactive) | > 100 µM (inactive) | > 100 µM (inactive) | > 100 µM (inactive)
